Experimental findings from patent US20240182508A1, “AMPHIPATHIC COMPOUND, PREPARATION METHOD THEREFOR, AND SURFACTANT COMPOSITION COMPRISING SAME” (priority 2022, published 2024) are described below.

Structures are written as SMILES.

Series [1] is described as follows: CMC (critical micelle concentration) from surface tension by the stalagmometric method. The settings on record: graph of surface tension versus sample concentration. The series is classed as physicochemical. As for the experimental part: The surface tension values of steviol bisglycoside (rebaudioside A) and steviol monoglycoside-acid, ester, and amide obtained in Examples 1, 4, and 5 were measured and compared at various concentrations using the stalagmometric method. In addition, through a graph of surface tension versus sample concentration, CMC was measured to be 5.14 mM (rebaudioside A), 1.1 mM (Example 1, steviolbioside), 0.15 mM (Example 4, rebaudioside B methyl ester), and 0.5 mM (Example 5, rebaudioside B n-hexylamide).

A short description of series [2]: Foaming properties (foam maintained on standing, measuring cylinder). The series is classed as physicochemical. The settings on record: 10 mg in 5 ml distilled water, shaken 10 seconds. The procedure: The foaming properties of steviol monoglycoside-ester obtained in Example 4 were confirmed. 5 ml of distilled water and 10 mg of steviol monoglycoside-ester obtained in Example 4 were mixed in a measuring cylinder to form micelles, then shaken for 10 seconds to generate foam, then allowed to stand at room temperature to compare the amount of foam.
Thereby, it was confirmed that about 50% of the foam was maintained after 15 minutes and about 30% of the foam was maintained after 30 minutes, based on the height of the foam.

In series [1], `C=C1C[C@@]23CC[C@H]4[C@@](C)(CCC[C@@]4(C)C(=O)O)[C@@H]2CC[C@]1(O[C@@H]1O[C@H](CO)[C@@H](O)[C@H](O)[C@H]1O[C@@H]1O[C@H](CO)[C@@H](O)[C@H](O)[C@H]1O)C3` [Example 1, steviolbioside] came in with a CMC of 1.1 mM.
As for `C=C1C[C@@]23CC[C@H]4[C@@](C)(CCC[C@@]4(C)C(=O)OC)[C@@H]2CC[C@]1(O[C@@H]1O[C@H](CO)[C@@H](O)[C@H](O[C@@H]2O[C@H](CO)[C@@H](O)[C@H](O)[C@H]2O)[C@H]1O[C@@H]1O[C@H](CO)[C@@H](O)[C@H](O)[C@H]1O)C3` [Example 4, rebaudioside B methyl ester], the “foam maintained, based on the height of the foam” value is listed as “about 50%” in series [2] (after 15 minutes at room temperature) and “about 30%” in series [2] (after 30 minutes at room temperature). The same compound came in with a CMC in series [1] of 0.15 mM.
Regarding `C=C1C[C@@]23CC[C@H]4[C@@](C)(CCC[C@@]4(C)C(=O)NCCCCCC)[C@@H]2CC[C@]1(O[C@@H]1O[C@H](CO)[C@@H](O)[C@H](O[C@@H]2O[C@H](CO)[C@@H](O)[C@H](O)[C@H]2O)[C@H]1O[C@@H]1O[C@H](CO)[C@@H](O)[C@H](O)[C@H]1O)C3` [Example 5, rebaudioside B n-hexylamide], the CMC in series [1] amounted to 0.5 mM.
Turning to `C=C1C[C@@]23CC[C@H]4[C@@](C)(CCC[C@@]4(C)C(=O)O[C@@H]4O[C@H](CO)[C@@H](O)[C@H](O)[C@H]4O)[C@@H]2CC[C@]1(O[C@@H]1O[C@H](CO)[C@@H](O)[C@H](O[C@@H]2O[C@H](CO)[C@@H](O)[C@H](O)[C@H]2O)[C@H]1O[C@@H]1O[C@H](CO)[C@@H](O)[C@H](O)[C@H]1O)C3` [rebaudioside A, reference compound], the CMC in series [1] was found to be 5.14 mM.
